Data on one compound can be found in patent US20230060873A1, “COMPOUNDS AND METHODS FOR FORMING ION CHANNELS IN BIOLOGICAL MEMBRANES” (Washington University, priority 2021, published 2023).

A short description of the test: Planar lipid bilayer ion channel recordings. It is filed as biochemical. Here is the method: Experiments in planar lipid bilayers were performed via a Nanion Orbit-mini planar bilayer system. The planar membranes were formed by painting a 25 mg/mL solution of lipids in n-nonane over the four 50 μm apertures on the chip. The lipids used were asolectin from soybean (Sigma-Aldrich) or a 3:1 w/w mix of 1-palmitoyl-2-oleoyl-sn-glycero-3-phosphoethanolamine (POPE) and 1-palmitoyl-2-oleoyl-sn-glycero-3-phospho-(1′-rac-glycerol) (POPG) (Avanti Polar lipids). The solutions tested were KCl solution (150 mM KCl, 10 mM HEPES, pH adjusted to 7.4 with KOH), NaCl solution (150 mM NaCl, 10 mM HEPES, pH adjusted to 7.4 with NaOH), and a concentrated KCl solution (500 mM KCl, 10 mM HEPES, pH adjusted to 7.4 with KOH). When the appropriate membrane formed, the voltage was clamped at 100 mV or −100 mV, and a stock solution of gramicidin D (Sigma-Aldrich) in DMSO or LEC10 in TFE were added up to the desired concentration. The tested concentration of gramicidin D was 1 nM and 2, 10, 100 and 200 μM were tested for LEC10. Two different temperatures were tested for each condition: 25 and 37° C. The current was recorded over 10 min for the gramicidin test and up to 1 h for the LEC10 test. The data was analyzed with Clampfit 10.7 software (Axon Instruments).
FIGS. 41 and 42 show the lipid bilayer recordings. Current through the asolectin planar lipid bilayer clamped at 100 mV was recorded in the presence of […] (FIG. 41) and 2 μM LEC10 (FIG. 42). In both cases, the solution was 150 mM KCl, 10 mM HEPES, pH 7.4. […] This lack of unitary channel formation, or even a carrier-like increase of the conductance, precludes an ionophore-like mechanism of ion transport.

With `CCCCCCCCCCN1CCOCCOCCN(CCCCCCCCCC)CCOCCOCC1` [LEC10, Didecyl diaza(18-crown-6)], the ion channel activity entry is recorded as “no ion channel activity was detected” (2 μM, bilayer clamped at 100 mV, 150 mM KCl, 10 mM HEPES, pH 7.4); “no indication of ion channel activity” (LEC10 10, 100 and 200 μM, KCl up to 500 mM or NaCl instead of KCl).
